Laboratory results from US20250313849A1, “OPTOGENETIC INDUCTION OF MEMBRANELESS ORGANELLES” (UNIVERSITY OF PITTSBURGH-OF THE COMMONWEALTH SYSTEM OF …, priority 2017, published 2025).
“Also recorded” adds a separate entry of the source.

B1: Cry2 PHR-[…]NTF-G3BP1: Cry2PHR with G3BP1 NTF2 Domain Deletion Mutation, SEQ ID NO: 94 (protein)
chain: MKMDKKTIVWFRRDLRIEDNPALAAAAHEGSVFPVFIWCPEEEGQFYPGRASRWWMKQSLAHLSQSLKALGSDLTLIKTHNTISAILDCIRVTGATKVVFNHLYDPVSLVRDHTVKEKLVERGISVQSYNGDLLYEPWEIYCEKGKPFTSFNSYWKKCLDMSIESVMLPPPWRLMPITAAAEAIWACSIEELGLENEAEKPSNALLTRAWSPGWSNADKLLNEFIEKQLIDYAKNSKKVVGNSTSLLSPYLHFGEISVRHVFQCARMKQIIWARDKNSEGEESADLFLRGIGLREYSRYICFNFPFTHEQSLLSHLRFFPWDADVDKFKAWRQGRTGYPLVDAGMRELWATGWMHNRIRVIVSSFAVKFLLLPWKWGMKYFWDTLLDADLECDILGWQYISGSIPDGHELDRLDNPALQGAKYDPEGEYIRQWLPELARLPTEWIHHPWDAPLTVLKASGVELGTNYAKPIVDIDTARELLAKAISRTREAQIMIGAAMGFVTEPQEESEEEVEEPEERQQTPEVVPDDSGTFYDQAVVSNDMEEHLEEPVAEPEPDPEPEPEQEPVSEIQEEKPEPVLEETAPEDAQKSSSPAPADIAQTVQEDLRTFSWASVTSKNLPPSGAVPVTGIPPHVVKVPASQPRPESKPESQIPPQRPQRDQRVREQRINIPPQRGPRPIREAGEQGDIEPRRMVRHPDSHQLFIGNLPHEVDKSELKDFFQSYGNVVELRINSGGKLPNFGFVVFDDSEPVQKVLSNRPIMFRGEVRLNVEEKKTRAAREGDRRDNRLRGPGGPRGGLGGGMRGPPRGGMVQKPGFGVGRGLAPRQKLIPMARRAWLEHGHSCFLCEIVIRSQFHTTYEPEA

Assays:
Format in all cases: cell-based
[1] = tested on: endogenous stress granule formation; assay: NaAsO2 induced endogenous stress granule formation in cells expressing G3BP1-NcVVDY50W, inhibitor pre-treatment; settings: NaAsO2 0.5 mM, 30 min; GSK2606414 added 1 hour before, cycloheximide 1 and a half hours before
Method: (§1) FIGS. 22A-22B. […] When endogenous stress granule formation is induced with NaAsO2 (0.5 mM, 30 min treatment), the G3BP1-NcVVDY50W forms stress granules that stain positive for key markers TIAR and eIF4G. When GSK2606414, a PERK kinase inhibitor, is added 1 hour before NaAsO2 treatment, endogenous stress granule formation is attenuated (FIG. 22A). When GSK2606414 is added 1 hour before blue light stimulation, there is no change in stress granule formation (FIG. 22B).
(§2) FIGS. 23A-23B. […] When endogenous stress granule formation is induced with NaAsO2 (0.5 mM, 30 min treatment), the G3BP1-NcVVDY50W forms stress granules that stain positive for the key marker eIF4G. When cycloheximide, a translational inhibitor, is added 1 and a half hours before NaAsO2 treatment, endogenous stress granule formation is attenuated (FIG. 23A).

[2] = tested on: optogenetically induced stress granule formation; assay: Blue light (optogenetically) induced stress granule formation, inhibitor pre-treatment; settings: blue light stimulation; GSK2606414 added 1 hour before, cycloheximide 1 and a half hours before
Method: as §1, §2
These light induced stress granules colocalize with key stress granule components, including Ataxin-2, TIAR, G3BP, eIF4G, eIF3H, RPS3, RPS6, TDP-43, FUS mRNA, and PABPC1 (FIGS. 2-9, 12, 13, 18, 20, 22, 23, 24, 25). Furthermore, the colocalization with mRNA (FIGS. 12 and 13) indicates the light induced stress granules are likely inhibiting mRNA translation. Note that the light induced stress granules appear identical to naturally occurring stress granules induced by heat shock treatment for 30 minutes at 42° C. […]

stress granules = assay: Cellular occurrence and structural characteristics of stress granules; settings: NaAsO2 0.5 mM, 30 min; cells expressing G3BP1-NcVVDY50W; Ataxin-2 positive
Method: FIGS. 11A-11D. […] Under normal conditions, G3BP1-NcVVDY50W remains diffuse in the cytoplasm. When endogenous stress granule formation is induced with NaAsO2 (0.5 mM, 30 min treatment), the G3BP1-NcVVDY50W forms stress granules that stain positive for the key marker Ataxin-2, and occur in the cell 11 times on average (FIG. 11A). They also have a defined shape that gives them a defined area (FIG. 11B), diameter (FIG. 11C) and circularity (FIG. 11D).

HEK293 cells [3] = assay: Blue light induced stress granules: staining for stress granule markers and mRNA; settings: blue light stimulation
Text: FIGS. 2A-2B. Blue light induced stress granules using a NcVVDY50W-G3BP1 protein arrangement. […] A DNA arrangement that generates the NcVVDY50W-G3BP1 was developed and expressed in HEK293 cells. Under normal conditions, the NcVVDY50W-G3BP1 remains diffuse in the cytoplasm. When endogenous stress granule formation is induced with heat shock, the NcVVDY50W-G3BP1 forms stress granules that stain positive for key markers including Ataxin-2 and TIAR.
FIG. 5. […] Under normal conditions, G3BP1-NcVVDY50W remains diffuse in the cytoplasm. When endogenous stress granule formation is induced with NaAsO2 (0.5 mM, 30 min treatment), the G3BP1-NcVVDY50W forms stress granules that stain positive for key markers TDP-43 and eIF4G. […] As an example of this technology, DNA arrangements were developed that generated G3BP1-NcVVDY50W, and expressed in HEK293 cells. Under normal conditions, the G3BP1-NcVVDY50W remains diffuse in the cytoplasm. When endogenous stress granule formation is induced with sodium arsenite, the G3BP1-NcVVDY50W forms stress granules that probe positive for key markers, including TDP-43 and eIF4G. […] Inserts are 3D images of stress granules indicated by arrows.
While stress granule dynamics are shown to be altered in these diseases, the true contributions of stress granules to disease pathobiology is unknown since the only current method to form these organelles is to introduce an extracellular stressor (e.g. heat stress at 43° C., exposure to sodium arsenite) which is toxic to cells and ultimately kills the cells being studied. The longest studies of stress granules to date are only on the order of a few hours and so, the importance of these organelles in the initiation of neurodegeneration or cancer cannot be assessed. Therefore, a method to control stress granule formation was developed using light, without the need for any extracellular stressors. To achieve this, the DNA encoding specific photoreceptor protein domains that self-bind with blue light exposure were linked to the DNA of a key protein required for the formation of stress granules, G3BP1 or TIA1. These arrangements were then expressed in HEK293 cells and were tested for their ability to form functional stress granules with various blue light treatment paradigms. It was shown that the LOV photoreceptor domain, from the Vivid protein of N. crassa, which is known to dimerize with blue light exposure, when fused to G3BP1 and exposed to 15-1080 min of 465 nm light at 0.1-1.0 mW/cm2 initiates the formation of a core stress granule structure consisting of the photoreceptors fused to G3BP1 that recruits additional G3BP1 and accessory proteins that comprise stress granules and allow for their maturation. This likely involved the liquid-liquid phase separation (LLPS) and dimerization and oligomerization of G3BP1 (concept represented in FIG. 1).

HEK293 cells [4] = assay: Longitudinal live imaging of light induced stress granule dynamics; settings: for dynamics / liquid-like behaviour of light induced stress granules: blue light on/off or chronic
Method: FIG. 15. […] NcVVDY50W-G3BP1 was expressed in HEK293 cells. […] NcVVDY50W-G3BP1 expressing HEK293 cells were longitudinally imaged every 30 seconds and exposed to blue light in between each image for 30 minutes. The light was then removed and cells were imaged every 30 seconds without light in between each image to study the rate of formation and dissociation of the light induced stress granules.
FIGS. 17A-17B. […] FIG. 17A) NcVVDY50W-G3BP1 was expressed in HEK293 cells. Stress granule formation can be temporally controlled with light stimulation at different voltages. FIGS. 17B) NcVVDY50W-G3BP1 expressing HEK293 cells were longitudinally imaged every 30 seconds and exposed to different voltages (1.0V, or 5.0V, or 10.0V) of blue light in between each image for 30 minutes, over a time-course of 6 hours. The light was then removed and cells were imaged every 30 seconds without light in between each image to study the rate of formation of the light induced stress granules.
FIGS. 18A-18E. […] NcVVDY50W-G3BP1 was expressed in HEK293 cells. […] Light paradigms were developed to chronically form stress granules with light for up to 18 hours. The light induced stress granules are positive for both key markers such as PABPC1 and sequester mRNA throughout the time course, indicating they are functional. […] No previous study has been able to induce stress granule formation for more than 2-3 hours as the cells die from the treatment to induce stress granules. Thus, these are the first studies to create chronic stress granules for over 2-3 hours.
(§3) FIGS. 24A-24E. Replacing the G3BP1 NTF2 domain, which is required for G3BP1 self-oligomerization (optoSG), with oligomerizing photoreceptors, is sufficient to initiate the formation of optogenetic stress granules. FIG. 24A) Schematics of an additional approach to seed optoStress Granules (optoSGs) employing truncated G3BP1 protein and replacing the NTF2 oligomerizing domain with a photoreceptor with the capacity to oligomerize (in this instance Cry2-PHR, but also works with chronic stimulation of dimerizing photoreceptor). FIG. 24B) HEK cells expressing Cry2 PHR-[…]NTF-G3BP1 were exposed to blue light LED stimulation for 30 minutes to induce the formation of optoSGs.
FIGS. 25A-25C. OptoStress Granules (optoSGs) (Cry2-delta NTF-G3BP1) display liquid-like properties of membraneless organelles and colocalize with translation initiation factors and mRNA.

protein synthesis = assay: De novo protein synthesis, HPG incorporation with Click-iT detection; settings: blue light stimulation; Click-iT detection
Method: FIGS. 14A-14B. […] The major function of endogenous stress granules is to bind mRNAs and halt protein synthesis until the cellular stress is removed. To test this, cells expressing G3BP1-NcVVDY50W were either exposed to blue light stimulation or not for 30 minutes and protein translation was assessed. Prior to the translation assay, cells were treated with cyclohexamide for one hour to inhibit protein synthesis and then the cyclohexamide was removed and cells were provided L-Homopropargylglycine (HPG) for one hour. HPG acts as a methionine amino acid analog and is incorporated into newly synthesized proteins. Click-iT™ chemistry was then performed to detect HPG and cells were imaged. Green signal indicates newly synthesized proteins during the time at which HPG is present in the media.
as §3

Row | Molecule | endogenous stress granule formation [1] | optogenetically induced stress granule formation [2] | colocalization of blue light induced stress granules with stress granule markers (HEK293 cells [3]) | dynamics / liquid-like behaviour of light induced stress granules (HEK293 cells [4]; HEK293 cells) | further results
1 | Cn1cc(-c2ccc3c(c2)CCN3C(=O)Cc2cccc(C(F)(F)F)c2)c2c(N)ncnc21 [GSK2606414] | attenuated | no change | – | – | –
2 | O=[As]O [NaAsO2, sodium arsenite] | – | – | – | – | occurrence of stress granules in the cell, on average (stress granules): 11
3 | C[C@@H]1C[C@@H]([C@H](O)CC2CC(=O)NC(=O)C2)C(=O)[C@@H](C)C1 [cycloheximide] | attenuated | inhibited; also recorded: fail to form | – | – | –
4 | NcVVDY50W-G3BP1: NcVivid Y50W with G3BP1 Full Length Protein, SEQ ID NO: 9 | – | – | stained positive for Ataxin-2 and TIAR; also recorded: colocalize with the key stress granule marker eIF3H | repeatedly formed; also recorded: decrease in number and increase in size | mRNA sequestration by blue light induced stress granules (HEK293 cells [3]): sequester cytoplasmic mRNA; duration of chronically formed stress granules with light (HEK293 cells [4]; HEK293 cells, chronic light, no cell stressors): up to 18 hours
5 | B1 | – | – | colocalize with endogenous stress granule markers including PABPC1 and the 40S ribosomal component RPS3; also recorded: colocalize with mature stress granule markers Ataxin2 and eIF4G translational factors | exhibit the liquid-like droplet properties of endogenously formed stress granules | protein synthesis (HPG signal) with light-induced stress granules (protein synthesis): inhibit cellular protein synthesis to a similar degree as sodium arsenite induced stress granules; time to optoSG formation (HEK293 cells [4]; HEKs, blue light LED stimulation): 15 min
